Measured values taken from patent publication US20220251084A1, “PROGRANULIN MODULATORS AND METHODS OF USING THE SAME” (ARKUDA THERAPEUTICS, priority 2019, published 2022).

Each molecule was assayed on progranulin (PGRN) secretion, BV-2 cells (assay: PGRN assay: progranulin induction cellular assay (ELISA of secreted mouse PGRN)). Settings: not given.
Format: cell-based
How it was run: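 Progranulin induction measured in BV-2 cells plated at about 80% confluence the day before, given 1 h to attach, then incubated 16 h. Secreted mouse PGRN quantified by ELISA.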

| Compound | EC50 |
| --- | --- |
| N#Cc1ccc2c(c1)CCN(C(=O)O[C@@H]1CN3CCC1CC3)[C@H]2c1ccc(F)cc1 [Compound 2033] | > 10 µM |
| O=C(O[C@@H]1CN2CCC1CC2)N1CCc2ccsc2C1c1ccc(F)cc1 (stereo partly drawn) [Compound 2122, (S)-quinuclidin-3-yl 7-(4-fluorophenyl)-4,7-dihydrothieno[2,3-c]pyridine-6(5H)-carboxylate] | 3.28 µM |
| O=C(O[C@@H]1CN2CCC1CC2)N1CCc2cccnc2[C@@H]1c1ccc(F)cc1 [Compound 2054, (S)-quinuclidin-3-yl 8-(4-fluorophenyl)-5,6-dihydro-1,7-naphthyridine-7(8H)-carboxylate] | 4.74 µM |

Same assay, conditions: Mus musculus, BV-2

| Compound | EC50 |
| --- | --- |
| O=C(O[C@@H]1CN2CCC1CC2)N1CCc2ccccc2C1c1ccc2[nH]c(=O)sc2c1 (stereo partly drawn) [Compound 2011] | > 10 µM |

Same assay, conditions: Mus musculus, BV-2, PGRN assay, Table C; secreted mouse PGRN in cell culture medium, ELISA

| Compound | EC50 |
| --- | --- |
| CN1CCC(COC(=O)N2CCc3ccccc3[C@H]2c2cccc(F)c2F)CC1 [Compound 2135] | 2.66 µM |
| COC(=O)c1ccc2c(c1)[C@@H](c1ccc(F)cc1)N(C(=O)OCC13CCN(CC1)CC3)CC2 [Compound 2045] | > 10 µM |
| CO[C@@H](CC12CCN(CC1)CC2)C(=O)N1CCc2ccccc2[C@@H]1c1ccc(F)cc1 [Compound 2027] | > 10 µM |
| CN1CCC(OC(=O)N2CCc3ccccc3[C@@H]2c2ccc(F)cc2)(C(F)(F)F)CC1 [Compound 2128, 1-methyl-4-(trifluoromethyl)piperidin-4-yl (S)-1-(4-fluorophenyl)-3,4-dihydroisoquinoline-2(1H)-carboxylate] | 7.54 µM |
| C#CCOc1ccc2c(c1)CCN(C(=O)OCC13CCN(CC1)CC3)[C@H]2c1ccc(F)cc1 [Compound 2078] | 5.35 µM |
| CN1CCC(COC(=O)N2CCc3ccccc3[C@H]2c2cc(F)c(F)c(F)c2)CC1 [Compound 2143] | 7.75 µM |
| COC(=O)c1ccc2c(c1)[C@H](c1ccc(F)cc1)N(C(=O)OCC13CCN(CC1)CC3)CC2 [Compound 2044] | 4.71 µM |
| COCCOCCOc1ccc(COc2ccc([C@H]3c4ccccc4CCN3C(=O)OCC34CCN(CC3)CC4)cc2)cc1 [Compound 2046] | 1.72 µM |
| CN1CCS(=O)(=O)[C@H](CC(=O)N2CCc3ccccc3[C@@H]2c2ccc(F)cc2)C1 [Compound 2042] | 3.2 µM |
| C#CCOCCN1CCC(COC(=O)N2CCc3ccccc3[C@@H]2c2ccc(F)cc2)CC1 [Compound 2196, (1-(2-(prop-2-yn-1-yloxy)ethyl)piperidin-4-yl)methyl (S)-1-(4-fluorophenyl)-3,4-dihydroisoquinoline-2(1H)-carboxylate] | > 10 µM |
| O=S(=O)(CCC12CCN(CC1)CC2)N1CCc2ccccc2[C@@H]1c1ccc(F)cc1 [Compound 2058, (S)-4-(2-(1-(4-fluorophenyl)-3,4-dihydroisoquinolin-2(1H)-ylsulfonyl)ethyl)quinuclidine] | 3 µM |
| N#Cc1ccc2c(c1)[C@@H](c1ccc(F)cc1)N(C(=O)N[C@@H]1CN3CCC1CC3)CC2 [Compound 2039, 7-cyano-1-(4-fluorophenyl)-N—((S)-quinuclidin-3-yl)-3,4-dihydroisoquinoline-2(1H)-carboxamide] | > 10 µM |
| O=C(OCC12CCN(CC1)CC2)N1CCc2ccccc2[C@@H]1c1ccc(F)cc1F [Compound 2096] | 0.387 µM |
| CNC(=O)c1ccc2c(c1)CCN(C(=O)NCC13CCN(CC1)CC3)[C@@H]2c1ccc(F)cc1 [Compound 2071] | 3.72 µM |
| CN1CC2COC[C@H](C1)C2OC(=O)N1CCc2ccccc2[C@@H]1c1ccc(F)cc1 (stereo partly drawn) [Compound 2144, (S)-((1R,5S,9r)-7-methyl-3-oxa-7-azabicyclo[3.3.1]nonan-9-yl) 1-(4-fluorophenyl)-3,4-dihydroisoquinoline-2(1H)-carboxylate] | 1.34 µM |
| CN1CCC(COC(=O)N2CCc3ccccc3[C@@H]2c2ccc(F)cc2F)CC1 [Compound 2105] | 1.07 µM |
| CN1CC2CCC(C1)C2OC(=O)N1CCc2ccccc2[C@@H]1c1ccc(F)cc1 (stereo in doubt) [Compound 2094, (1S)-3-methyl-3-aza-bicyclo[3.2.1]octan-8-yl 1-(4-fluorophenyl)-3,4-dihydroisoquinoline-2(1H)-carboxylate] | 7.22 µM |
| O=C(Nc1ccncc1)N1CCc2ccccc2[C@@H]1c1ccc(F)cc1 [Compound 2151] | 1.16 µM |

Continued, values first:

| EC50 | Compound |
| --- | --- |
| 0.12 µM | O=C(O[C@@H]1CCNC1)N1CCc2ccccc2[C@@H]1c1ccc(F)cc1 [Compound 2179, (1S)—((R)-pyrrolidin-3-yl)-1-(4-fluorophenyl)-3,4-dihydroisoquinoline-2(1H)-carboxylate] |
| 3.22 µM | CN1CCC(COC(=O)N2CCc3ccccc3[C@@H]2c2ccc(F)cc2)CC1 [Compound 2173] |

Same assay, conditions: Mus musculus, BV-2, PGRN assay, Table D; secreted mouse PGRN in cell culture medium, ELISA

| Compound | EC50 |
| --- | --- |
| O=C(N[C@H]1CNCC12CC2)N1CCc2ccccc2[C@@H]1c1ccc(F)cc1 [Compound 2280] | 1.18 µM |
| CN1C[C@H](NC(=O)N2CCc3ccccc3[C@@H]2c2ccc(F)cc2)C2(CC2)C1 [Compound 2315] | 0.742 µM |
| CN1[C@@H]2CC[C@H]1[C@@H](NC(=O)N1CCc3ccccc3[C@@H]1c1ccc(F)cc1)C2 [Compound 2224] | 0.48 µM |
| O=C(NCC1CNC[C@@H]1O)N1CCc2ccccc2[C@@H]1c1ccc(F)cc1 (stereo partly drawn) [Compound 2308, (S)-1-(4-fluorophenyl)-N-((cis-4-hydroxypyrrolidin-3-yl)methyl)-3,4-dihydroisoquinoline-2(1H)-carboxamide] | 2.94 µM |

Further lines, results first:

| EC50 | Compound |
| --- | --- |
| 0.125 µM | O=C(N[C@H]1CNC[C@H]1F)N1CCc2ccccc2[C@@H]1c1ccc(F)cc1 [Compound 2352] |
| 0.46 µM | CN1CC[C@@H](NC(=O)N2CCc3ccccc3[C@@H]2c2ccc(F)cc2)C1 [Compound 2245] |
| 0.73 µM | O=C(O[C@@H]1CNCCOC1)N1CCc2ccccc2[C@@H]1c1ccc(F)cc1 [Compound 2260] |
| 0.148 µM | O=C(N[C@@H]1CNC[C@H]1F)N1CCc2ccccc2[C@@H]1c1ccc(F)cc1 [Compound 2360] |
| 5.5 µM | O=C(NC[C@H]1CCCNC1)N1CCc2ccccc2[C@@H]1c1ccc(F)cc1 (single isomer, unassigned) [Compound 2220] |
| 7.83 µM | O=C(NC[C@@H]1CCCNC1)N1CCc2ccccc2[C@@H]1c1ccc(F)cc1 [Compound 2221] |
| 0.27 µM | O=C(OCC1(F)CNC1)N1CCc2ccccc2[C@@H]1c1ccc(F)cc1 [Compound 2258] |
| 1.14 µM | O=C(OC[C@@H]1CCN1)N1CCc2ccccc2[C@@H]1c1ccc(F)cc1 [Compound 2239, (S)-(S)-azetidin-2-ylmethyl 1-(4-fluorophenyl)-3,4-dihydroisoquinoline-2(1H)-carboxylate] |
| 0.806 µM | N[C@H]1CCN(C(=O)N2CCc3ccccc3[C@@H]2c2ccc(F)cc2)C1 [Compound 2284] |
| 1.28 µM | O=C(O[C@H]1CNCCOC1)N1CCc2ccccc2[C@@H]1c1ccc(F)cc1 [Compound 2263] |
| 0.55 µM | O=C(NCC1CNC1)N1CCc2ccccc2[C@@H]1c1ccc(F)cc1 [Compound 2257, (S)—N-(azetidin-3-ylmethyl)-1-(4-fluorophenyl)-3,4-dihydroisoquinoline-2(1H)-carboxamide acetate] |
| 3.95 µM | O=C(O[C@@H]1CNCC1(F)F)N1CCc2ccccc2[C@@H]1c1ccc(F)cc1 [Compound 2242] |

Same assay, conditions: PGRN assay, Table C; secreted mouse PGRN in cell culture medium, ELISA

| Compound | EC50 |
| --- | --- |
| O=C(OC1CNC1)N1CCc2ccccc2[C@@H]1c1ccc(F)cc1 [Compound 2162] | > 10 µM |

Same assay, conditions: PGRN assay, Table D; secreted mouse PGRN in cell culture medium, ELISA

| Compound | EC50 |
| --- | --- |
| O=C(N[C@H]1CNCCOC1)N1CCc2ccccc2[C@@H]1c1ccc(F)cc1 (single isomer, unassigned) [Compound 2275] | 0.447 µM |
